The source of these data is patent US20110212978A1 (AstraZeneca AB, priority 2005, published 2011).

The test system of one experiment is MX-1 tumour xenografts. In words: MX-1 human tumour xenograft growth in female athymic mice. It counts as in vivo. The following applies: female nude mice; for Day 14 Median tumour volume / Day 14 geometric mean tumour volume: Day 14 after implantation (randomisation, start of treatment), ZD6474 25 mg/kg/day p.o., pemetrexed 75 mg/kg i.p.; for Day 28 Median tumour volume / Day 28 geometric mean tumour volume: ZD6474 25 mg/kg/day p.o. once daily, pemetrexed 75 mg/kg i.p. once daily days 14-18 and 21-25. As for the experimental part:
Tumour implantation procedures were performed on mice of at least 5 weeks of age. Human tumour xenografts were grown in female athymic (nu/nu genotype, Swiss) mice. MX-1 tumour fragments were implanted into athymic mice and allowed to grow to 0.7-1 cm^3 to provide donor tumour tissue. The donor tumours were surgically excised and smaller tumour fragments (20-30 mg) were implanted subcutaneously (s.c.) in the right flanks of the experimental athymic mice. When the mean tumour volume reached 0.1-0.3 cm^3, randomisation was carried out. […] An additional group of animals received a combination of pemetrexed and ZD6474, using the same doses and schedules as used for single agent treatment.
Tumour volumes were assessed at least twice weekly by bilateral Vernier caliper measurement. Growth inhibition from the start of treatment was assessed by comparison of the differences in tumour volume between control and treated groups.
Experiments were conducted on female athymic mice (Swiss nu/nu genotype, >6 weeks of age). MX-1 human tumour xenografts were established in mice from tumour cell implants. The donor tumours were surgically excised when they reached a volume of 0.7-1 cm^3, divided into fragments and frozen until further use. At the start of the experiment, fragments (approximately 30 mg) were thawed and implanted (subcutaneously in the dorsal flank) in the experimental animals. Tumour volumes were assessed at least twice weekly by bilateral Vernier calliper measurements. Mice were randomised into treatment groups when the tumour volume reached 0.1-0.2 cm^3. […] An additional group of animals received a combination of ZD6474 and pemetrexed, using the same doses and schedules as used for single agent treatment.
Tumour growth inhibition (TGI) from the start of treatment was assessed by comparison of the differences in tumour volume between control and treated groups.
On the technique in general: Xenograft models place foreign cells or tissue in a host animal.

The subject of another experiment is VEGF RTK. To be noted: cited from earlier work.
For a further experiment, the system named is tumour growth. The following applies: range of models, once-daily oral administration; cited from earlier work.

`Nc1nc2[nH]cc(CCc3ccc(C(=O)N[C@@H](CCC(=O)[O-])C(=O)[O-])cc3)c2c(=O)[nH]1.[Na+].[Na+]` [pemetrexed, L-Glutamic acid, N-[4-[2-(2-amino-4,7-dihydro-4-oxo-1H-pyffolo[2,3-d]pyrimidin-5-yl)ethyl]benzoyl]-, disodium salt, hetpahydrate]: in the experiment on MX-1 tumour xenografts, the “Day 14 Median tumour volume” value turned out to be 0.147 cm^3, the “Day 14 geometric mean tumour volume” value is listed as 0.146 cm^3, the “Day 28 Median tumour volume” value amounted to 0.794 cm^3 and the “Day 28 geometric mean tumour volume” value amounted to 0.751 cm^3.
For the molecule `COc1cc2c(Nc3ccc(Br)cc3F)ncnc2cc1OCC1CCN(C)CC1` [ZD6474, 4-(4-bromo-2-fluoroanilino)-6-methoxy-7-(1-methylpiperidin-4-ylmethoxy)quinazoline], the “Inhibition of VEGF RTK” value in the experiment on VEGF RTK is recorded as “potent inhibitor”. In the experiment with MX-1 tumour xenografts, the “Day 14 Median tumour volume” value turned out to be 0.148 cm^3, the “Day 14 geometric mean tumour volume” value is reported as 0.148 cm^3, the “Day 28 Median tumour volume” value was 0.967 cm^3 and the “Day 28 geometric mean tumour volume” value is given as 0.702 cm^3. Besides, the Anti-tumour activity entry in the experiment on tumour growth is given as “broad-spectrum anti-tumour activity”.
